The source made the active and inactive calls.
Key:
[1] = biological target: Luciferin 4-monooxygenase (Photinus pyralis, UniProt P08659); assay: Counter Screen for Luciferase-based Assay Positives. [Related pubchem assays: 620, 618, 411 ]
HT-1080 = assay: HT1080 cell viability loss – fluorescence readout (AID 620); type: functional, cell-based; conditions: Homo sapiens
HEK293 = assay: Fluorescence-based counterscreen for potentiators or agonists of NPY-Y2: cell-based high-throughput dose response assay to identify inhibitors of cyclic nucleotide gated ion channel (CNGC) activity. In this assay, the parental HEK293 cell line transfected with a cyclic-nucleotide gated ion channel (CNGC)-based cAMP sensor is used to measure inhibition of isoproterenol-induced CNGC activity by test compound.; type: functional; conditions: Homo sapiens;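 note: stimulus is 1 µM isoproterenol at EC100 plus PDE inhibitor Ro 20-1724 at 25 µM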
Protein RecA = biological target: T1, Protein RecA (Mycobacterium tuberculosis, UniProt P9WHJ3); assay: Fluorescence Cell-Free Homogeneous Dose Retest to Identify Inhibitors of RecA-Intein Splicing Activity. [Related pubchem assays (depositor defined):AID2097, AID2223, AID489010, AID492950]; type: functional
T1 sequence (P9WHJ3 whole entry): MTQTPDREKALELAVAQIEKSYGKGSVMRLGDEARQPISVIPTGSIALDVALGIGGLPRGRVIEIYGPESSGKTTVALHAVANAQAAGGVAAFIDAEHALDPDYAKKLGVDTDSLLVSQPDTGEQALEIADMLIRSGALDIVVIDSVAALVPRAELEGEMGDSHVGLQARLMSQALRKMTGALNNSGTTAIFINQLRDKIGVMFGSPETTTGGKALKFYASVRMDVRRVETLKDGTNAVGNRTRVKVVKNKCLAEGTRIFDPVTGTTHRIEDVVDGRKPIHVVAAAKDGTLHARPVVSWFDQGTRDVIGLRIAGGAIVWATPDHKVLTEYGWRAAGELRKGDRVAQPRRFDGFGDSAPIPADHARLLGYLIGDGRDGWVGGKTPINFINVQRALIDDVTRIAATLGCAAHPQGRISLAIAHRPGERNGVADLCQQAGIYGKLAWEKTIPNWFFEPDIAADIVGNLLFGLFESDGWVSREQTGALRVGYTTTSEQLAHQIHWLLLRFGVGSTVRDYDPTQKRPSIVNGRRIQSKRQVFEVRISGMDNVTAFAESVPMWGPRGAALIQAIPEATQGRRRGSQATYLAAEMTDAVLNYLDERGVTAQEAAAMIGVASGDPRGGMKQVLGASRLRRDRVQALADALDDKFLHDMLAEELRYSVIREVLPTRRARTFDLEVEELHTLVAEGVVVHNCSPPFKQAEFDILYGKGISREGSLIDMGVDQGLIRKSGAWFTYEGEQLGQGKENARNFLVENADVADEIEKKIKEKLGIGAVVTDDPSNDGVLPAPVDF

[2] = Luminescent dose response cell-based high throughput screening assay for inhibitors of the Janus kinase 2 mutant JAK2V617F. [Related pubchem assays: 1446 (Primary screen.), 1521 (Confirmation assay.), 1486 (Counter screen.)]; type: functional
[3] = biological target: T2, Neuropeptide Y receptor type 2 (Homo sapiens, UniProt P49146); assay: Fluorescence-based cell-based high-throughput dose response assay for agonists of NPY-Y2. [Related pubchem assays: 1703 (Screening assay (CNGC inhibitors).), 1359 (Screening assay (NPY-Y2 potentiators or agonists).), 1304 (Screening assay (NPY-Y1 potentiators or agonists).), 1710 (Screening assay (NPY-Y2 agonists).), 1791 (Summary AID.)]; type: functional
T2 sequence (P49146 whole entry): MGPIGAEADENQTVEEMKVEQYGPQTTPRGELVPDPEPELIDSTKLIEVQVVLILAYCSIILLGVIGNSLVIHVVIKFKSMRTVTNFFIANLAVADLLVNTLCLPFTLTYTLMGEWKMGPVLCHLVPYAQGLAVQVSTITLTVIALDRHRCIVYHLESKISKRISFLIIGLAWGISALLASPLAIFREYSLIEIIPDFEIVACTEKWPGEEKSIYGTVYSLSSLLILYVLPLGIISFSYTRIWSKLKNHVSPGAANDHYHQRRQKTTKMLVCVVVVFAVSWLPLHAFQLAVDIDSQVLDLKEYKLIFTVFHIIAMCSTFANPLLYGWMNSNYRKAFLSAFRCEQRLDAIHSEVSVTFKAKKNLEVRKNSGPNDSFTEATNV

[4] = biological target: T3, Neuropeptide Y receptor type 1 (Homo sapiens, UniProt P25929); assay: Fluorescence-based counterscreen for agonists of NPY-Y2: cell-based high-throughput dose response assay for agonists of NPY-Y1.; type: functional
T3 sequence (P25929 whole entry): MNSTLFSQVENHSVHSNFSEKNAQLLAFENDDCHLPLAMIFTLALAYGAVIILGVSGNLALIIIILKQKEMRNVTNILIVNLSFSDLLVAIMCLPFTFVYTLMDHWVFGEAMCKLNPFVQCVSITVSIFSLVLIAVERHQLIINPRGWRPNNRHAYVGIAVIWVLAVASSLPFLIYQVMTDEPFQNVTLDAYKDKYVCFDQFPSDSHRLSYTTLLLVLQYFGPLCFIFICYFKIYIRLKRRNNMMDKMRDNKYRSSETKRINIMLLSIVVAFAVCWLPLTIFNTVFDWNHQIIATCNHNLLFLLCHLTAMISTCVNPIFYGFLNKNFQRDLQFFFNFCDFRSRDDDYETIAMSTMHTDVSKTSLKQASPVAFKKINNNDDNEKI

[5] = biological target: T4, Replicative DNA helicase DnaB (Mycobacterium tuberculosis, UniProt P9WMR3); assay: DnaB intein splicing inhibitors, dose response, biochemical, cell-free fluorescence (AID 449749); type: functional
T4 sequence (P9WMR3 whole entry): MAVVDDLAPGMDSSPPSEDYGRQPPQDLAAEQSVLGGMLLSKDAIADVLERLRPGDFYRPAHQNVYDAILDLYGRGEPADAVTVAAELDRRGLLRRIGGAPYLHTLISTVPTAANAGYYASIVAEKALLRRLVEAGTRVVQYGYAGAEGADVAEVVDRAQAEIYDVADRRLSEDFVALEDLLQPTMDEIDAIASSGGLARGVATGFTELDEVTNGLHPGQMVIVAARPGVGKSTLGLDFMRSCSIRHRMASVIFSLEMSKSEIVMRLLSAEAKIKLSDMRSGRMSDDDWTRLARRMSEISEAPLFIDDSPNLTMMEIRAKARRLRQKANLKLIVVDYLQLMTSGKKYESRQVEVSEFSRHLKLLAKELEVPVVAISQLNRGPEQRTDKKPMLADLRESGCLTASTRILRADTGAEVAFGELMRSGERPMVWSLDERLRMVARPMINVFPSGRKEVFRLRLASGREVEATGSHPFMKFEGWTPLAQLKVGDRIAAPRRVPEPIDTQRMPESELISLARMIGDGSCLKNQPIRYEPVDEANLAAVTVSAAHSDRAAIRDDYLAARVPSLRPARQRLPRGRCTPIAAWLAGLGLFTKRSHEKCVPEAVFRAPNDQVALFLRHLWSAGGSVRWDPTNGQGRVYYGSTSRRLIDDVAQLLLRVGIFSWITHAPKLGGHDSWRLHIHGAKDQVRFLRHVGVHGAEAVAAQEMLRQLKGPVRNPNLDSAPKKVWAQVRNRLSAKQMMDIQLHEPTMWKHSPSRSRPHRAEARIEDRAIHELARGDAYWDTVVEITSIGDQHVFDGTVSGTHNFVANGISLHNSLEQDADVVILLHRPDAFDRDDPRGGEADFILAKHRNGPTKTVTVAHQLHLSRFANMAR

[6] = A Cell Based Secondary Assay To Explore Cytotoxicity of Compounds that Sensitize Mycobacterium Tuberculosis to Beta-Lactam Antibiotics.; type: functional
[7] = biological target: T5, Polyadenylate-binding protein 1 (Homo sapiens, UniProt P11940); assay: MLLE binding blockers, Cy5 peptide tracer – biochemical, fluorescence polarization, Cy5-PAM2 peptide, secondary, miRNA deadenylation inhibitor project, dose response (AID 602260); type: functional; conditions: read-out: IC50_Mean
[8] = biological target: T5, Polyadenylate-binding protein 1; assay: MLLE domain peptide-binding blockers, IC50 – biochemical, fluorescence polarization, FITC-PAM2 peptide, dose response (AID 602259); type: functional; conditions: read-out: IC50_Mean
[9] = biological target: Potassium voltage-gated channel subfamily KQT member 2 (Rattus norvegicus, UniProt O88943, W236L); assay: potentiation of rat KCNQ2 current – cell-based, automated electrophysiology, mechanism study for KCNQ2 potentiator project, dose response (AID 2603); type: functional
[10] = reduction of Shn3 3'UTR-driven luciferase in osteoblasts – cell-based, Clone20 osteoblasts, firefly luciferase, cherry-picked, dose response (AID 624132); type: functional;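 note: firefly luciferase luminescence from reporter carrying the Shn3 3'UTR in osteoblasts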
[11] = biological target: T6, High affinity choline transporter 1 (Homo sapiens, UniProt Q9GZV3); assay: human choline transporter blockers, potency – cell-based, 5-point CRC, membrane potential dye, dose response (AID 504840); type: functional
T6 sequence (Q9GZV3 whole entry): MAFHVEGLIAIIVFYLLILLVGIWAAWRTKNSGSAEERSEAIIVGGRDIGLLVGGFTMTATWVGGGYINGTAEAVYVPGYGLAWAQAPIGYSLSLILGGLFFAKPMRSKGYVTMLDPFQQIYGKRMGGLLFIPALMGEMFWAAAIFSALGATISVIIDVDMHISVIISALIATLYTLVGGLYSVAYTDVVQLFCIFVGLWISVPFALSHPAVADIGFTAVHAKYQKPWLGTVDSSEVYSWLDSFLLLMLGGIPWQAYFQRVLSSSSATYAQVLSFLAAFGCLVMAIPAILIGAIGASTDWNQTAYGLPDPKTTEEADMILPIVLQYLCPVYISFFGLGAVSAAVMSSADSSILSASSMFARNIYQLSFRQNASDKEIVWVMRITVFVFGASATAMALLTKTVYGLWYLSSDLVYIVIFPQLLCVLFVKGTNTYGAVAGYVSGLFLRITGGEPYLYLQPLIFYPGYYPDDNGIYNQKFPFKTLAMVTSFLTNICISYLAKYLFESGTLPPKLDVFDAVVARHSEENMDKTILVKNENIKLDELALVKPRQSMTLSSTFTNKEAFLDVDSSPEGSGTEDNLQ

[12] = non-specific 3'UTR reporter inhibition in Clone20-Shn3RL – cell-based, Renilla luciferase, cherry-picked, counter-screen for Shn3 inhibitor project, dose response (AID 624133); type: functional
Vero = assay: viability of Vero cells under compound – cytotoxicity control for flavivirus capping enzyme inhibitors (AID 588742); type: functional; conditions: Chlorocebus sabaeus
[13] = biological target: T6, High affinity choline transporter 1; assay: human choline transporter blockers, potency – cell-based, 10-point CRC, membrane potential dye, dose response (AID 588401); type: functional;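 note: membrane potential dye fluorescence of choline-evoked depolarization via CHT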
[14] = Luminescence Cell-Based Dose Response HTS to Identify Activators of Luciferase Translation or Activity in H4 […] Cells. [Related pubchem assays: 1829 (Project Summary), 1814 (Primary HTS)]; type: functional
[15] = Luminescence Cell-Based Dose Confirmation to Identify Activators of 5'UTR Stem-Loop Driven Alpha-Synuclein mRNA Translation in H4 Neuroglioblastoma Cells. [Related pubchem assays: 1829 (Project Summary), 1814 (Primary HTS)]; type: functional
[16] = Luminescence Cell-Based Dose Response to Identify Activators of 5'UTR Stem-Loop Driven Prion Protein mRNA Translation in H4-C Neuroglioblastoma Cells. [Related pubchem assays: 1829 (Project Summary), 1814 (Primary HTS)]; type: functional
H4 = assay: Luminescence Cell-Based Dose Response HTS to Identify Activators of 5'UTR Stem-Loop Driven Prion Protein mRNA Translation in H4 Neuroglioblastoma Cells. [Related pubchem assays: 1829 (Project Summary), 1814 (Primary HTS)]; type: functional; conditions: Homo sapiens
[17] = Luminescence Cell-Based Dose Response to Identify Activators of Luciferase Translation or Activity in H4-C Neuroglioblastoma Cells. [Related pubchem assays: 1829 (Project Summary), 1814 (Primary HTS)]; type: functional
[18] = biological target: T7, Microphthalmia-associated transcription factor (Homo sapiens, UniProt O75030); assay: reducers of TRPM1 reporter luminescence, concentration series – cell-based, SK-MEL-5, cherry-picked, set 3, MITF inhibitor project, dose response (AID 493073); type: functional;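 note: SK-MEL-5 melanoma cells with luciferase driven by the MITF target TRPM1 promoter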
T7 sequence (O75030 whole entry): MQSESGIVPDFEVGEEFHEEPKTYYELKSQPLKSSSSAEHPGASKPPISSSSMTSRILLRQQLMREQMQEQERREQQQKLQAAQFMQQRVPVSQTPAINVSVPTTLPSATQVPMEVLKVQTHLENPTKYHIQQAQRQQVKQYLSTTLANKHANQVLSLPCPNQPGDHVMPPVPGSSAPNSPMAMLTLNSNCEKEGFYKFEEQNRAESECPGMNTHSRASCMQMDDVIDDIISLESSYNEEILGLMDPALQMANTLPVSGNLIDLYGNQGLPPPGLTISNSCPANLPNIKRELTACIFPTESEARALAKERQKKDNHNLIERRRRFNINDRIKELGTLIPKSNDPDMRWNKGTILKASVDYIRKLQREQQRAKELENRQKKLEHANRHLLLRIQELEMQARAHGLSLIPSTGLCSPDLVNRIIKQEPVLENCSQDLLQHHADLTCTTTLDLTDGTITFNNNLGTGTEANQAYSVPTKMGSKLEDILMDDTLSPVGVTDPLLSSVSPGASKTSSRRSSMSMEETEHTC

Chain of Luciferin 4-monooxygenase (P08659 whole entry): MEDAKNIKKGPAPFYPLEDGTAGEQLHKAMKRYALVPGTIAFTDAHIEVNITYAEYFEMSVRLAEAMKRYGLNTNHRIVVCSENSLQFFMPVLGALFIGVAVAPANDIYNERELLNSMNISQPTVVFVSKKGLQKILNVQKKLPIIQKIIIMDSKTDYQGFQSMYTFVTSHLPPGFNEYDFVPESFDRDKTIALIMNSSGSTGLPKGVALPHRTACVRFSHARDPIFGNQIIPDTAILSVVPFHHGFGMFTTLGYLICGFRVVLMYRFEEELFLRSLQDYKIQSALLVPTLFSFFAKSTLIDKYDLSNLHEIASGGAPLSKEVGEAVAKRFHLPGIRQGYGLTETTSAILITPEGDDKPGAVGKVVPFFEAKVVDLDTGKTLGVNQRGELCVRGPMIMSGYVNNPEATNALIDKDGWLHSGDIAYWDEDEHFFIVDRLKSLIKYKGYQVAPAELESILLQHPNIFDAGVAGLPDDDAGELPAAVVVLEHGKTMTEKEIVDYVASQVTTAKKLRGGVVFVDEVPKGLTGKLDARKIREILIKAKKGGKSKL
T5 sequence (P11940 whole entry, the tested form may be a part): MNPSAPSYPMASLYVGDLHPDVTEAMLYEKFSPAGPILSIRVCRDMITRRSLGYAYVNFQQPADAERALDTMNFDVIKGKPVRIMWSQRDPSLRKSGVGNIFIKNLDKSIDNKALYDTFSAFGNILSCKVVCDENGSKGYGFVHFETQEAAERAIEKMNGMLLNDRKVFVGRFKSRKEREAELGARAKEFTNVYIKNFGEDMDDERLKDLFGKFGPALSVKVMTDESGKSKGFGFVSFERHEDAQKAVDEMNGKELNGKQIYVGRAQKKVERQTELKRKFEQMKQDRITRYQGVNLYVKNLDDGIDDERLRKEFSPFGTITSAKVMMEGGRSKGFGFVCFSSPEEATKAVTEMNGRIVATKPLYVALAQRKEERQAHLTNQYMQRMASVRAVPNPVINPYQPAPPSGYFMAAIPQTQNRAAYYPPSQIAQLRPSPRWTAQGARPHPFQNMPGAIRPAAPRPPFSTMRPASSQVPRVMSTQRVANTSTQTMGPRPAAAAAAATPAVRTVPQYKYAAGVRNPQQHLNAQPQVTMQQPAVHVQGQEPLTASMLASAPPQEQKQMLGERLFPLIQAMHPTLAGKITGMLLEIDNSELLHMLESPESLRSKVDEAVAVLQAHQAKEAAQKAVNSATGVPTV
Chain of Potassium voltage-gated channel subfamily KQT member 2 (O88943 whole entry W236L): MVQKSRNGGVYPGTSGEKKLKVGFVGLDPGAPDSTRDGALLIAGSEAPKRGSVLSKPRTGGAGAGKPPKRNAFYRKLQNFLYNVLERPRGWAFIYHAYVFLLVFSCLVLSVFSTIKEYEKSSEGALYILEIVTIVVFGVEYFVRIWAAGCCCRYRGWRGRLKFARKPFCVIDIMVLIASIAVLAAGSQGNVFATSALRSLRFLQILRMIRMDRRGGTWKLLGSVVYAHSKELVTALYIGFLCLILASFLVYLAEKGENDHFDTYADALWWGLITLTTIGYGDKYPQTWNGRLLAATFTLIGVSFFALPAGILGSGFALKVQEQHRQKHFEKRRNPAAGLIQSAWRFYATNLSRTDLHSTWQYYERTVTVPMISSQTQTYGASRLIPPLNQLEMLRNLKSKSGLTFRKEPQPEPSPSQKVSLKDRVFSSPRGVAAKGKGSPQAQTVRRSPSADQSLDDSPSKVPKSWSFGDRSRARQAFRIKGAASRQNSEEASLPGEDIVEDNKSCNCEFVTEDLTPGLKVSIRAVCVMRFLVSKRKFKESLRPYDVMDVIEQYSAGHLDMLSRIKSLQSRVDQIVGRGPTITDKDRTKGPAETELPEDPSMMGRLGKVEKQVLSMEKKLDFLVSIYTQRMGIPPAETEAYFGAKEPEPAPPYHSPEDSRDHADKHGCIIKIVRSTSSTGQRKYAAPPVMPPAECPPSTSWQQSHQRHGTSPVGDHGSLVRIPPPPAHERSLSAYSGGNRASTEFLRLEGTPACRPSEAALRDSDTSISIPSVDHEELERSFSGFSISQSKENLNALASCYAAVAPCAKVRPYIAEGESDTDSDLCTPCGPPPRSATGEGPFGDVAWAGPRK

Cc1ccc(NC(=O)c2ccc3c(c2)OCCO3)cc1
EC50 [1]: 0.81 µM (active)
EC50 (HT-1080): > 50 µM (not active)

O=C(CCl)NC(=O)NC12CC3CC(CC(C3)C1)C2
EC50 (HEK293): > 35.4 µM (not active)
EC50 (Protein RecA): 5.47 µM (active)
IC50 [2]: 0.87 µM (active)
EC50 [3]: > 35.4 µM (not active)
EC50 [4]: > 35.4 µM (not active)
AC50 [5]: 12 µM (active)

CCC(=O)N1CCN(c2ccc(NC(=S)NC(=O)c3ccc(OC)c([N+](=O)[O-])c3)cc2)CC1
CC50 [6]: > 40 µM (active)
IC50 [7]: > 66 µM (inactive)
IC50 [8]: > 66 µM (inactive)

Cc1ccc(CS(=O)(=O)c2ncc(Cl)c(C(=O)Nc3nnc(C)s3)n2)cc1
EC50 [9]: 5.4 µM (active)
EC50 (Protein RecA): 16 µM (active)
AC50 [10]: 0.639 µM (active)
IC50 [11]: 4.05 µM (active)
AC50 [12]: 6.75 µM (active)
AC50 [5]: 14.2 µM (active)
CC50 (Vero): 17.4 µM (active)
IC50 [13]: 3.98 µM (active)

Cc1nn(-c2nc3ccccc3s2)c(N)c1-c1ccccc1
EC50 [14]: < 0.1 µM (active)
EC50 [15]: 0.277 µM (active)
EC50 [16]: 0.346 µM (active)
EC50 (H4): > 120 µM (not active)
EC50 [17]: 1.66 µM (active)

COc1ccc(/C(O)=C\C=N\c2ccccn2)cc1
EC50 [1]: 73.2 µM (active)
EC50 (HT-1080): > 50 µM (not active)
AC50 [18]: 3.72 µM (active)

N#C/C(=C(/O)COC(=O)CCc1ccc(S(=O)(=O)N2CCOCC2)cc1)c1nc2ccccc2[nH]1
CC50 [6]: > 40 µM (active)

From ChEMBL document CHEMBL1201862, “PubChem BioAssay data set” (2004)
